# Data reported in patent US7544814B2, “[3.2.0] Heterocyclic compounds and methods of using the same” (Nereus Pharmaceuticals, Inc., priority 2004, dated 2009).
# Where “and” joins values, the source holds several entries; their conditions need not be identical. Identical values can stand only once. Like-named read-outs stand apart in the source and are kept apart here.
# What was measured:
# [1] = test system: RPMI 8226; experiment: Cell growth inhibition (resazurin), RPMI 8226; settings: for cytotoxicity against RPMI 8226, in words: from EC50 values
# [2] = test system: NF-κB; experiment: NF-κB-mediated luciferase reporter gene assay, HEK293 NF-κB/Luc cells, TNF-α stimulation; assay type: cell-based, human; settings: for effect on luciferase activity upon TNF-α stimulation, in words: pretreatment of NF-κB/Luc 293 cells
# Description: The HEK293 NF-κB/luciferase reporter cell line is a derivative of the human embryonic kidney cell line (ATCC; CRL-1573) and carries a luciferase reporter gene under the regulation of 5× NF-κB binding sites. […] When performing the luciferase assay, the DMEM basal medium was replaced with phenol-red free DMEM basal medium and the G418 was omitted.
# For NF-κB-mediated luciferase assays, HEK293 NF-κB/luciferase cells were seeded at 1.5×10^4 cells/well in 90 μl phenol-red free DMEM complete medium into Corning 3917 white opaque-bottom tissue culture plates. For Formula II-2, Formula II-4, Formula II-5A, and Formula II-18, a 400 μM starting dilution was made in 100% DMSO and this dilution was used to generate a 8-point half log dilution series. […] For Formula II-20, a 2.5 mM or 8 mM starting solution was made in 100% DMSO and the final test concentrations ranged from 6.3 μM to 2.0 nM or 20 μM to 6.3 nM, respectively. The plates were returned to the incubator for 1 hour. After 1 hr pretreatment, 10 μl of a 50 ng/ml TNF-α solution, prepared in the phenol-red free DMEM medium was added, and the plates were incubated for an additional 6 hr.
# At the end of the TNF-α stimulation, 100 μl of Steady Lite HTS luciferase reagent (Packard Bioscience) was added to each well and the plates were left undisturbed for 10 min at room temperature before measuring the luciferase activity. The relative luciferase units (RLU) were measured by using a Fusion microplate fluorometer (Packard Bioscience).
# [3] = test system: U266; experiment: Cell growth inhibition (resazurin), U266; settings: for EC50: 48 hours drug exposure; for cytotoxicity against U266, in words: from EC50 values
# [4] = target: T1, chymotrypsin-like activity of purified rabbit muscle 20S proteasome (Oryctolagus cuniculus, UniProt G1T4Q9); experiment: In vitro inhibition of 20S proteasome chymotrypsin-like activity (suc-LLVY-AMC)
# T1 sequence (G1T4Q9 1-263): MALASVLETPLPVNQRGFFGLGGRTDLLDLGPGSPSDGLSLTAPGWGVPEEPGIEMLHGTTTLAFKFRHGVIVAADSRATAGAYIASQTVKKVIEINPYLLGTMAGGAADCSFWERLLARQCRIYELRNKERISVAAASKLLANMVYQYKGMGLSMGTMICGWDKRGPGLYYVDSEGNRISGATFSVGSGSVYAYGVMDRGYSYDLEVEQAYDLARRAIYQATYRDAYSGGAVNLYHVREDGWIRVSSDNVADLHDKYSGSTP
# [5] = target: T2, trypsin-like activity of purified rabbit muscle 20S proteasome (Oryctolagus cuniculus, UniProt G1SWK8); experiment: biochemical
# T2 sequence (G1SWK8 1-271): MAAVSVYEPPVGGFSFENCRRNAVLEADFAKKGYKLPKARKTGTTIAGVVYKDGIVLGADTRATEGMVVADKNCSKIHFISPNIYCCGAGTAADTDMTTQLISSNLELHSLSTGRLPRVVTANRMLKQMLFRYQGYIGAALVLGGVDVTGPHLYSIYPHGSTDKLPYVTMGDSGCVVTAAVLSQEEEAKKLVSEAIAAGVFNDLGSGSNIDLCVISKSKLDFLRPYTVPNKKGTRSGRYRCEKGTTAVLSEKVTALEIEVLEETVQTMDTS
# [6] = target: T3, caspase-like activity of purified rabbit muscle 20S proteasome (Oryctolagus cuniculus, UniProt A0A5F9DQW2); experiment: In vitro inhibition of 20S proteasome caspase-like activity (Z-LLE-AMC)
# T3 sequence (A0A5F9DQW2 1-212): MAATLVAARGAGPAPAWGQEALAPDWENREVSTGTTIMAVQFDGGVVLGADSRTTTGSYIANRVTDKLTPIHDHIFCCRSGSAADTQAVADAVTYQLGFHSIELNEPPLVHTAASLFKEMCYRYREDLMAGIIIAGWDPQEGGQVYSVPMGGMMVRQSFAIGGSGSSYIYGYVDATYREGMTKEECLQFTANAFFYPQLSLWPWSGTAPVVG
# [7] = target: T2, trypsin-like activity of purified rabbit muscle 20S proteasome; experiment: In vitro inhibition of 20S proteasome trypsin-like activity (Boc-LRR-AMC); settings: for inhibition of the trypsin-like activity of the 20S proteasome, in words: under the conditions tested
# [8] = Homo sapiens, RPMI-8226, 48 h, read-out: RPMI 8226 EC50, Table 2, 48 hours drug exposure, mean ± SD where n≥3
# [9] = Homo sapiens, HEK293, Table 5, values printed in μM, 1 hr pretreatment, TNF-α 6 hr, read-out: EC50, NF-κB-mediated luciferase reporter gene assay
# [10] = Homo sapiens, U-266, 48 h, read-out: U266 EC50, Table 2
# [11] = read-out: RPMI 8226 EC50, Table 2, 48 hours drug exposure, mean ± SD where n≥3
# [12] = EC50 Chymotrypsin-like, Table 6, values in nM
# [13] = EC50 values, chymotrypsin-like activity, summary of Table 6
# [14] = EC50 Caspase-like, Table 6, values in μM
# [15] = EC50 Chymotrypsin-like, Table 6, values in μM
# [16] = EC50 values, chymotrypsin-like activity, range or bound stated in text, summary of Table 6
# [17] = Table 5, values in μM, 1 hr pretreatment, TNF-α 6 hr, read-out: EC50, NF-κB-mediated luciferase reporter gene assay
# [18] = EC50 values, caspase-like activity, range in mixed units, summary of Table 6, range from nM to μM
# [19] = Homo sapiens, HEK293, read-out: EC50, NF-κB-mediated luciferase reporter gene assay, Table 5, values in μM, 1 hr pretreatment, TNF-α 6 hr
Compound,"EC50 [1, 8] [µM]","EC50 [2, 9] [µM]","EC50 [3, 10] [µM]","cytotoxicity against RPMI 8226, in words [1]","EC50 [1, 11] [µM]","EC50 [4, 12]","EC50 [4, 13] [nM]",EC50 [5],"EC50 [6, 14]","inhibition of the trypsin-like activity of the 20S proteasome, in words [7]","effect on luciferase activity upon TNF-α stimulation, in words [2]","cytotoxicity against U266, in words [3]","EC50 ([3]; read-out: U266 EC50, Table 2) [µM]",other results
"C[C@@]12OC(=O)[C@]1(C(O)[C@@H]1C=CCCC1)NC(=O)[C@@H]2CCCl (single isomer, unassigned) [Formula II-25]",> 20,> 20,> 20,–,–,–,–,–,–,–,–,–,–,–
CC12OC(=O)C1(CC1C=CCCC1)NC(=O)C2CCCl (centres unmarked) [Formula I-7],0.24,–,–,cytotoxic,0.25,52 ± 2 nM,13 to 88,–,–,–,–,–,–,–
CC12OC(=O)C1(C(=O)C1C=CCCC1)NC(=O)C2CCCl (centres unmarked) [Formula II-13C],–,–,–,–,–,–,–,8.6 µM and 12.8 µM,> 20 µM,able to inhibit,–,–,–,"EC50 [4, 15]: 7600 nM and 8800 nM; EC50 [4, 16]: 1400 to 10600 nM"
C[C@@]12OC(=O)[C@]1([C@@H](O)[C@@H]1C=CCCC1)NC(=O)[C@@H]2CCO [Formula II-21],> 20,3.2,6.09,–,–,8 nM,2 to 11,0.879 µM,2.6 µM and 2.3 µM,able to inhibit,dose-dependent decrease,cytotoxic,9.67,"EC50 ([1]; Homo sapiens, RPMI-8226, read-out: Cytotoxicity RPMI EC50, Table 12): > 20 µM; EC50 [2, 17]: 2.7 µM; EC50 ([2]; Table 12, read-out: NF-κB EC50): 2.71 µM; EC50 [6, 18]: 0.956 to 8.7 µM; EC50 ([6]; Proteasome Caspase-like EC50, Table 12): 2.58 µM and 2.33 µM; EC50 ([7]; read-out: Proteasome Trypsin-like EC50, Table 12): 0.879 µM; EC50 ([4]; Proteasome Chymotrypsin-like EC50, Table 12): 8 nM"
CCC(=O)OCC[C@H]1C(=O)N[C@@]2([C@@H](O)[C@@H]3C=CCCC3)C(=O)O[C@@]12C [Formula II-22],9.72,–,–,cytotoxic,11.2,7 nM and 3 nM,2 to 11,0.289 µM,1.3 µM and 1.4 µM,able to inhibit,dose-dependent decrease,cytotoxic,–,"EC50 ([2]; Homo sapiens, HEK293, read-out: EC50, NF-κB-mediated luciferase reporter gene assay, Table 5, values in nM, 1 hr pretreatment, TNF-α 6 hr): 0.728 µM; EC50 [2, 19]: 1 µM; EC50 [6, 18]: 0.956 to 8.7 µM"
CC[C@@]12OC(=O)[C@]1([C@@H](O)[C@@H]1C=CCCC1)NC(=O)[C@@H]2CCCl [Formula II-24C],2.32,–,1.15,cytotoxic,1.64,–,–,3.3 µM and 3.1 µM,> 20 µM,able to inhibit,dose-dependent decrease,cytotoxic,0.825,"EC50 [2, 19]: 5.3 µM; EC50 [4, 15]: 2000 nM; EC50 [4, 16]: 1400 to 10600 nM"
C[C@@]12OC(=O)[C@]1([C@@H](O)[C@@H]1C=CCCC1)NC(=O)[C@H]2CCCl [Formula II-26],2.23,4.3,–,cytotoxic,1.61,–,–,–,–,able to inhibit,dose-dependent decrease,cytotoxic,0.829,"EC50 [2, 17]: 4.1 µM"
CC[C@@H]1C(=O)N[C@@]2([C@@H](O)[C@@H]3C=CCCC3)C(=O)O[C@@]12C [Formula II-27],–,> 20,–,–,–,–,–,> 20 µM,–,–,–,–,–,–
